Test results taken from patent US12257237B2 (priority 2017, dated 2025).

System: DD013 dedifferentiated liposarcoma
Assay: Antitumour activity in DD013 dedifferentiated liposarcoma xenograft model
Format: in vivo, Athymic nude mice
Settings: for optimal T/C: day 50
Method: Experiments were performed with female Athymic nude mice, 9-10 weeks old obtained from Harlan Laboratories (Udine, Italy). They were maintained under Specific Pathogen Free conditions with constant temperature and humidity, according to the institutional guidelines.
Tumour growth mice was monitored two/three times a week (depending on tumour growth rate, to avoid unnecessary stress to the animals) by Vernier caliper. Mice were sacrificed when tumour reached a mean weight of 2±0.5 gr. The antitumour activity will be expressed as T/C %, where T and C were the mean tumour weight of treated and control groups, respectively. Mice were monitored daily and weighted at least two times a week. Tolerability was evaluated on the basis of body weight loss (BWL) and clinical observation.
Statistical analysis was performed with GraphPad Prism version 6.01 software (GraphPad software, Inc., La Jolla, CA, USA). ANOVA test was performed to evaluate if there were statistically significant differences between treated and control groups.
Briefly, xenografts were obtained by transplanting 3-4 mm tumour fragments s.c. in the flanks of mice. The growing tumour masses were measured with the aid of a Vernier caliper, and the tumour weights (TW, 1 mm^3=1 mg) were calculated by the formula: length×(width) 2/2. When tumour load achieved about 200-400 mg, mice were randomized into the experimental groups.

## Cn1c(CCCCCCC(=O)NO)nc2cc(N(CCCl)CCCl)ccc21 [EDO-S101, 7-(5-(bis(2-chloroethyl)amino)-1-methyl-1H-benzo[d]imidazol-2-yl)-N-hydroxyheptanamide]
40 mg/kg i.v. q7dx3
  optimal T/C: 27.2%
40 mg/kg q7dx3, first cycle
  effect on tumour growth: reduced tumour growth, but without a complete arrest
40 mg/kg, second cycle from day 50
  effect of second cycle on tumour growth: promoted tumour growth arrest
60 mg/kg i.v. q7dx3
  optimal T/C: 14%
60 mg/kg, first cycle
  effect on tumour growth: induced tumour growth arrest
60 mg/kg, second cycle from day 72
  effect of second cycle on tumour growth: sustained tumour growth arrest
80 mg/kg i.v. single dose
  optimal T/C: 18%
80 mg/kg, first cycle
  effect on tumour growth: induced tumour growth arrest
80 mg/kg, second cycle from day 58
  effect of second cycle on tumour growth: Tumour growth arrest was also observed
EDO40: EDO-S101 40 mg/kg q7dx3, day 23 from inoculum
  DD0113 tumour weight, Mean: 198.6 mg
EDO40: EDO-S101 40 mg/kg q7dx3, day 26 from inoculum
  DD0113 tumour weight, Mean: 283.6 mg
EDO40: EDO-S101 40 mg/kg q7dx3, day 29 from inoculum
  DD0113 tumour weight, Mean: 319.2 mg
EDO40: EDO-S101 40 mg/kg q7dx3, day 33 from inoculum
  DD0113 tumour weight, Mean: 394.4 mg
EDO40: EDO-S101 40 mg/kg q7dx3, day 36 from inoculum
  DD0113 tumour weight, Mean: 380.3 mg
EDO40: EDO-S101 40 mg/kg q7dx3, day 40 from inoculum
  DD0113 tumour weight, Mean: 433.4 mg
EDO40: EDO-S101 40 mg/kg q7dx3, day 43 from inoculum
  DD0113 tumour weight, Mean: 451.3 mg
EDO40: EDO-S101 40 mg/kg q7dx3, day 47 from inoculum
  DD0113 tumour weight, Mean: 507.4 mg
EDO40: EDO-S101 40 mg/kg q7dx3, day 50 from inoculum
  DD0113 tumour weight, Mean: 570.5 mg
EDO40: EDO-S101 40 mg/kg q7dx3, day 54 from inoculum
  DD0113 tumour weight, Mean: 599.5 mg
EDO40: EDO-S101 40 mg/kg q7dx3, day 58 from inoculum
  DD0113 tumour weight, Mean: 584.1 mg
EDO40: EDO-S101 40 mg/kg q7dx3, day 62 from inoculum
  DD0113 tumour weight, Mean: 677.9 mg
EDO40: EDO-S101 40 mg/kg q7dx3, day 65 from inoculum
  DD0113 tumour weight, Mean: 677.8 mg
EDO40: EDO-S101 40 mg/kg q7dx3, day 69 from inoculum
  DD0113 tumour weight, Mean: 703.2 mg
EDO40: EDO-S101 40 mg/kg q7dx3, day 72 from inoculum
  DD0113 tumour weight, Mean: 669.8 mg
EDO40: EDO-S101 40 mg/kg q7dx3, day 75 from inoculum
  DD0113 tumour weight, Mean: 666.1 mg
EDO40: EDO-S101 40 mg/kg q7dx3, day 79 from inoculum
  DD0113 tumour weight, Mean: 756.8 mg
EDO40: EDO-S101 40 mg/kg q7dx3, day 83 from inoculum
  DD0113 tumour weight, Mean: 683.9 mg
EDO40: EDO-S101 40 mg/kg q7dx3, day 87 from inoculum
  DD0113 tumour weight, Mean: 935.9 mg
EDO40: EDO-S101 40 mg/kg q7dx3, day 90 from inoculum
  DD0113 tumour weight, Mean: 1022.8 mg
EDO40: EDO-S101 40 mg/kg q7dx3, day 94 from inoculum
  DD0113 tumour weight, Mean: 1226.5 mg
EDO40: EDO-S101 40 mg/kg q7dx3, day 98 from inoculum
  DD0113 tumour weight, Mean: 1338.0 mg
EDO40: EDO-S101 40 mg/kg q7dx3, day 100 from inoculum
  DD0113 tumour weight, Mean: 1553.1 mg
EDO60: EDO-S101 60 mg/kg q7dx3, day 23 from inoculum
  DD0113 tumour weight, Mean: 199.2 mg
EDO60: EDO-S101 60 mg/kg q7dx3, day 26 from inoculum
  DD0113 tumour weight, Mean: 272.5 mg
EDO60: EDO-S101 60 mg/kg q7dx3, day 29 from inoculum
  DD0113 tumour weight, Mean: 310.4 mg
EDO60: EDO-S101 60 mg/kg q7dx3, day 33 from inoculum
  DD0113 tumour weight, Mean: 373.1 mg
EDO60: EDO-S101 60 mg/kg q7dx3, day 36 from inoculum
  DD0113 tumour weight, Mean: 334.2 mg
EDO60: EDO-S101 60 mg/kg q7dx3, day 40 from inoculum
  DD0113 tumour weight, Mean: 371.2 mg
EDO60: EDO-S101 60 mg/kg q7dx3, day 43 from inoculum
  DD0113 tumour weight, Mean: 339.5 mg
EDO60: EDO-S101 60 mg/kg q7dx3, day 47 from inoculum
  DD0113 tumour weight, Mean: 330.2 mg
EDO60: EDO-S101 60 mg/kg q7dx3, day 50 from inoculum
  DD0113 tumour weight, Mean: 310.9 mg
EDO60: EDO-S101 60 mg/kg q7dx3, day 54 from inoculum
  DD0113 tumour weight, Mean: 321.1 mg
EDO60: EDO-S101 60 mg/kg q7dx3, day 58 from inoculum
  DD0113 tumour weight, Mean: 303.3 mg
EDO60: EDO-S101 60 mg/kg q7dx3, day 62 from inoculum
  DD0113 tumour weight, Mean: 298.3 mg
EDO60: EDO-S101 60 mg/kg q7dx3, day 65 from inoculum
  DD0113 tumour weight, Mean: 291.6 mg
EDO60: EDO-S101 60 mg/kg q7dx3, day 69 from inoculum
  DD0113 tumour weight, Mean: 334.6 mg
EDO60: EDO-S101 60 mg/kg q7dx3, day 72 from inoculum
  DD0113 tumour weight, Mean: 423.7 mg
EDO60: EDO-S101 60 mg/kg q7dx3, day 75 from inoculum
  DD0113 tumour weight, Mean: 432.9 mg
EDO60: EDO-S101 60 mg/kg q7dx3, day 79 from inoculum
  DD0113 tumour weight, Mean: 475.7 mg
EDO60: EDO-S101 60 mg/kg q7dx3, day 83 from inoculum
  DD0113 tumour weight, Mean: 376.9 mg
